As usually defined, the EC50 is the midpoint of the concentration-response curve.

The experiment addresses T1, URAT1 (Homo sapiens, UniProt Q96S37).
T1 sequence (Q96S37 1-553): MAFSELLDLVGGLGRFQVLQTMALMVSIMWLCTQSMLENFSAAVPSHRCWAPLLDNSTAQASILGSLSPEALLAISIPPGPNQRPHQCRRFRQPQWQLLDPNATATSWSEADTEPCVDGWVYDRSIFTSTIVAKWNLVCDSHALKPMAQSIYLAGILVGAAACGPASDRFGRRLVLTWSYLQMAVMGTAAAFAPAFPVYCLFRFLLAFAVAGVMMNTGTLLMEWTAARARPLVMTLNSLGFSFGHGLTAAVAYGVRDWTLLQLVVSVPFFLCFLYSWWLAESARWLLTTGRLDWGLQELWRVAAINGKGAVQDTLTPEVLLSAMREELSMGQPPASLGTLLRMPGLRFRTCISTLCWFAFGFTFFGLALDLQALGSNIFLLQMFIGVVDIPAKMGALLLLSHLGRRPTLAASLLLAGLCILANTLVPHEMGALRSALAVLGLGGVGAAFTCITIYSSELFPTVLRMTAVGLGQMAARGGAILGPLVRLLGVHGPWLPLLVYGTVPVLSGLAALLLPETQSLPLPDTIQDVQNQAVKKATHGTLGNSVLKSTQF
Description: URAT1-model assay (14C-uric acid transport in HEK293/URAT1-model cells). As to conditions: 125 μM 14C-uric acid, 10 minutes at room temperature, read-out: URAT-1 model cell-based C14 EC50 Ranking. The method, then:
HEK293 human embryonic kidney cells (ATCC# CRL-1573) were propagated in EMEM tissue culture medium as described by ATCC in an atmosphere of 5% CO2 and 95% air. Transfections of HEK293 cells with a model URAT1 construct was performed using L2000 transfection reagent (Invitrogen) as described by the manufacturer. After 24 h the transfected cells were split into 10 cm tissue culture plates and grown for 1 day after which the medium was replaced with fresh growth medium containing G418 (Gibco) at 0.5 mg/ml final concentration. Drug-resistant colonies were selected after approximately 8 days and then tested for ^14C-uric acid transport activity. The HEK293/URAT1-model cells are plated on Poly-D-Lysine Coated 96-well Plates at a density of 125,000 cells per well.
Cells were grown overnight (20-26 hours) at 37° C. in an incubator. Plates were allowed to come to room temperature and media was washed out with one wash of 250 μl of Wash Buffer (125 mM Na Gluconate, 10 mM Hepes ph 7.3). Compound or vehicle is added in assay buffer with ^14C-Uric Acid for a final concentration of 125 μM Uric Acid with a specific activity of 54 mCi/mmol. Assay Buffer is 125 mM Sodium Gluconate, 4.8 mM Potassium Gluconate, 1.2 mM Potassium phosphate, monobasic, 1.2 mM magnesium sulfate, 1.3 mM Ca Gluconate, 5.6 mM Glucose, 25 mM HEPES, pH 7.3. Plates were incubated at room temperature for 10 minutes then washed 3 times with 50 μl Wash Buffer and 3 times with 250 μl Wash Buffer. Microscint 20 Scintillation Fluid was added and plates were incubated overnight at room temperature to equilibrate. Plates are then read on the TopCount Plate Reader and an EC50 value generated. (See Enomoto et al, Nature, 2002, 417, 447-451 and Anzai et al, J. Biol. Chem., 2004, 279, 45942-45950.)
Compounds as described herein were tested according to the protocol described above for the URAT-1 model assay; the results are shown in the table below wherein: […]
For `CC(C)(Sc1ccccc1-c1ccc(C(N)=O)cc1)C(=O)O` [Example 1B], the EC50 lay within 500 to 10000 nM. As for `CC(C)(Sc1ccccc1-c1ccc(CO)cc1)C(=O)O` [Example 1C], the figure is 50 to 500 nM; as for `N#Cc1ccc(-c2ccccc2SC2(C(=O)O)CCC2)cc1` [Example 1D], 1 to 50 nM; as for `O=C(O)C1(Sc2ccccc2-c2ccc(CO)cc2)CCC1` [Example 1E], 50 to 500 nM.

With `O=C(O)C1(Sc2ccc(F)cc2-c2ccc(C3CC3)cc2)CCC1` [Example 1F], the EC50 was 500 to 10000 nM. As for `N#Cc1ccc(-c2cc(F)ccc2SC2(C(=O)O)CCC2)cc1` [Example 1G], the figure is 1 to 50 nM.
